Laboratory results as given in US20240374667A1, “Prunella vulgaris extract and use thereof” (Clariant International Ltd, priority 2021, published 2024).

Experiments:
Assay type in all cases: cell-based
Human hair follicles [1] = assay: Hair follicle structure, HES staining; settings: cortisol 100 μM alone, 5 days
Protocol: (§1) Human hair follicles were removed from a fresh scalp/face skin biopsy of a person. After the depilation, isolated follicles were selected by microscopic observation to select only ones in anagen phase. They were randomized and placed in supplemented William's E medium (Penicillin/Streptomycin, L-glutamine (2 mM), hydrocortisone (0.027 μM), sodium selenite (10 ng/ml), transferrin (10 μg/ml) and insulin (10 μg/ml) and indicated treatment (control, cortisol at 100 μM, PVE at 50 or 150 ppm in presence or not of cortisol). After overnight fixation in paraformaldehyde solution (MM France, Brignais, France), samples were dehydrated and impregnated in paraffin using a dehydration automat (STP120 ThermoScientific™ Waltham, MA, USA). Then, sections of […] were mounted on Superfrost® Gold slides before proceeding to Hematoxylin-eosin-saffron (HES) staining. Hematoxylin-eosin-saffron (HES) is a trichromatic coloration using nuclear, cytoplasmic and matrix colorants, usually used for the visualization of tissues.

[2] = test system: Human sensory neurons derived from hiPS cells; assay: CGRP release by sensory neurons after cortisol or histamine challenge (ELISA); settings: for CGRP release by sensory neurons: stress molecule alone at 10 μM, 30 minutes of stimulation, vs control
Protocol: Human sensory neurons are derived from hiPS cells (human induced Pluripotent Stem cells). hiPS cells are obtained by transfecting human fibroblasts cells. Cells were plated in 96 wells plates coated by a thin layer of Matrigel® (Corning; ref: 354277; batch: 9238002) in a differentiation medium (M1). Cells were incubated at 37° C. and 5% CO2 for 6 days and culture medium was changed every 2 days. After 9 days of differentiation, medium M1 was replaced by a maturation medium for human sensory neurons (M2). Cells were incubated at 37° C. and 5% CO2 for 6 days and culture medium was changed every 2 days. […] H-2700; batch: 1069755) was added. […] Culture was incubated for 24 hours at 37° C. and 5% of CO2. After 2 or 24 hours of incubation, the culture plates were stimulated by cortisol (Sigma Aldrich; ref: H0888; batch: SLB[…]) or histamine, each at 10 μM (Tocris; ref: 3545; batch: 1A/18942). After 30 minutes of stimulation, supernatants were removed and stored at -80° C. The amount of CGRP (antibodies-online; ref: abx257902; batch: E2001551F) released in supernatant after 30 minutes of stimulation were dosed by ELISA and compared to non-treated control. All values were expressed as mean +/-s.e.mean.

Human hair follicles [3] = assay: Growth of isolated human hair follicles under cortisol (ex vivo culture, 5 days); settings: cortisol 100 μM alone, day 1 to day 5
Protocol: Human hair follicles were removed from a fresh scalp/face skin biopsy of a person. After the depilation, isolated follicles were selected by microscopic observation to select only ones in anagen phase. They were randomized and placed in supplemented William's E medium (Penicillin/Streptomycin, L-glutamine (2 mM), hydrocortisone (0.027 μM), sodium selenite (10 ng/ml), transferrin (10 μg/ml) and insulin (10 μg/ml) and indicated treatment (control, cortisol at 100 μM, PVE at 50 or 150 ppm in presence or not of cortisol). Follicles were cultured at 37° C. under 5% CO2 and a relative humidity >95%. Medium was changed at day 1 and 3. The growth of isolated follicles was monitored for 5 days by daily photography using a stereomicroscope device (Carl Zeiss, Microscopy, France). The length of each follicle was measured using ImageJ software.

Human hair follicles [4] = assay: Hair follicle pigmentation, Masson's Fontana staining; settings: cortisol alone, 5 days
Protocol: as §1, with “USA). The” for “USA).”, “to Masson's Fontana” for “to Hematoxylin-eosin-saffron (HES)”, “staining. This staining is used to visualize melanin granules. Melanin” for “staining. Hematoxylin-eosin-saffron (HES)”, “a non-lipid pigment, brown to black, present physiologically in hair, eyes,” for “a trichromatic coloration using nuclear, cytoplasmic”, “and skin.” for “and matrix colorants, usually used for the visualization of tissues.”

Human hair follicles [5] = assay: Hair follicle cell proliferation (Ki-67) and apoptosis (TUNEL) under cortisol; settings: cortisol alone, five days, vs control
Protocol: Human hair follicles were removed from a fresh scalp/face skin biopsy of a person. After the depilation, isolated follicles were selected by microscopic observation to select only ones in anagen phase. They were randomized and placed in supplemented William's E medium (Penicillin/Streptomycin, L-glutamine (2 mM), hydrocortisone (0.027 μM), sodium selenite (10 ng/ml), transferrin (10 μg/ml) and insulin (10 μg/ml) and indicated treatment (control, cortisol at 100 μM, PVE at 50 or 150 ppm in presence or not of cortisol). To perform immunostaining, slide deparaffinization was manually conducted using successive baths of solvent. Heat-induced epitope retrieval was performed using the Dako Envision Flex solution (Agilent, Santa Clara, US). Ki-67 (dilution 1/500).Cell proliferation was studied by Ki-67 immunostainings realized on paraffin sections (mouse monoclonal anti-Ki-67, Dako™ M7240, Santa Clara, US), The apoptosis was studied by using click-iT® Plus Alexa 488 TUNEL assay (ThermoScientific™, C10617, Waltham, MA, USA) following supplier instructions. After TUNEL assay and Ki67 antibody incubation, slices were incubated one hour at room temperature with an Alexa 568 coupled secondary antibody (A11004, Thermo Fischer Scientific™, Waltham, MA, USA). Nuclei counterstain was done using Hoechst (Invitrogen, ref H3570) at 1/5000 for 5 minutes at RT. Slides were mounted in aqueous medium.

[6] = test system: hair follicles dermal papilla cells (HFDPCs); assay: HFDPC proliferation under cortisone (WST test); settings: cortisone 200 μM alone, 60 h
Protocol: (§2) 2.3. Evaluation of the ability of PVE to counteract the glucocorticoids-induced decrease proliferation of hair follicles cells and to restore the VEGF secretion HFDP cells were maintained in Follicle Dermal Papilla Cell Growth Medium (C-26501, PromoCell, Heidelberg, Germany) at 37° C., under 5%, CO2. Cells at passage 4 were plated in 24 well plate at 2×10^4 cells/well. HFDPCs at 60% confluence was pretreated with 5, 10 or 20 ppm of PVE for 2 h, and subsequently treated with 200 μM cortisone. After incubation for 60 h, cell culture supernatant was recovered, and secreted VEGF was measured using ELISA kit. For the cell proliferation assay, the WST test was used (EZ-Cytox, DogenBio, Korea). Absorbance was measured at 450 nm wavelength using microplate spectrophotometry.

[7] = test system: hair follicles dermal papilla cells (HFDPCs); assay: VEGF secretion by HFDPC under cortisone (ELISA); settings: cortisone 200 μM alone, 60 h
Protocol: as §2

[8] = test system: Human sensory neurons derived from hiPS cells; assay: Oxytocin release by sensory neurons after cortisol or histamine challenge (ELISA); settings: 2 h pre-incubation
Protocol: Human sensory neurons are derived from hiPS cells (human induced Pluripotent Stem cells). hiPS cells are obtained by transfecting human fibroblasts cells. Cells were plated in 96 wells plates coated by a thin layer of Matrigel® (Corning; ref: 354277; batch: 9238002) in a differentiation medium (M1). Cells were incubated at 37° C. and 5% CO2 for 6 days and culture medium was changed every 2 days.
After 9 days of differentiation, medium M1 was replaced by a maturation medium for human sensory neurons (M2). Cells were incubated at 37° C. and 5% CO2 for 6 days and culture medium was changed every 2 days. On day 18 of culture (24 hours of pre-incubation) or day 19 of culture (2 hours of pre-incubation,) the medium was removed, and fresh medium with PVE or reference compound β-endorphin (Bachem; ref: H-2700; batch: 1069755) was added. The following conditions were done: control medium, control medium containing PVE at 50, 100 or 150 ppm, control medium containing beta-endorphin at 10 μM. Culture was incubated for 24 hours at 37° C. and 5% of CO2. After 2 or 24 hours of incubation, the culture plates were stimulated by cortisol (Sigma Aldrich; ref: H0888; batch: SLBN5690V) or histamine, each at 10 μM (Tocris; ref: 3545; batch: 1A/18942). After 30 minutes of stimulation, supernatants were removed and stored at −80° C. […]

Molecule: C[C@]12CCC(=O)C=C1CC[C@@H]1[C@@H]2[C@@H](O)C[C@@]2(C)[C@H]1CC[C@]2(O)C(=O)CO [cortisol]
- hair follicle structure (dermal sheath, hair matrix) (Human hair follicles [1]): dramatically altered
- CGRP release by sensory neurons [2]: strong increase of CGRP release
- hair follicle growth (length) (Human hair follicles [3]): strongly reduced
- hair follicle pigmentation (melanin granules) (Human hair follicles [4]): almost all the melanin granules disappeared
- apoptosis of hair follicle cells (TUNEL) (Human hair follicles [5]): induces apoptosis in cells
- hair follicle cell proliferation (Ki-67) (Human hair follicles [5]): reduced cell proliferation

Molecule: C[C@]12CCC(=O)C=C1CC[C@@H]1[C@@H]2C(=O)C[C@@]2(C)[C@H]1CC[C@]2(O)C(=O)CO [cortisone]
- HFDPCs proliferation [6]: inhibits the HFDPCs proliferation
- VEGF secretion by HFDPC [7]: reduced VEGF production

Molecule: NCCc1c[nH]cn1 [histamine]
- CGRP release by sensory neurons [2]: strong increase of CGRP release

Molecule: β-endorphin (YGGFMTSEKSQTPLVTLFKNAIIKNAYKKGE; Beta-endorphin; UniProt P01189 237-267, looked up)
- CGRP release by sensory neurons (sensory neuron excitation) ([2]; 2 h or 24 h pre-incubation, PVE 50, 100 or 150 ppm, beta-endorphin 10 μM, then cortisol 10 μM, 30 minutes): reduce the neuronal excitation at level similar to the control condition
- oxytocin release by sensory neurons ([8]; then cortisol 10 μM challenge): no effect on the oxytocin release
- oxytocin release by sensory neurons ([8]; then histamine 10 μM challenge): no effect on the oxytocin release
